Reference: article PMC8604788 (ACS chemical biology, 2021)

Target: T1, proline utilization A (SmPutA), bifunctional PRODH-GSALDH enzyme (Sinorhizobium meliloti, UniProt F7X6I3)
T1 sequence (F7X6I3 1-1233): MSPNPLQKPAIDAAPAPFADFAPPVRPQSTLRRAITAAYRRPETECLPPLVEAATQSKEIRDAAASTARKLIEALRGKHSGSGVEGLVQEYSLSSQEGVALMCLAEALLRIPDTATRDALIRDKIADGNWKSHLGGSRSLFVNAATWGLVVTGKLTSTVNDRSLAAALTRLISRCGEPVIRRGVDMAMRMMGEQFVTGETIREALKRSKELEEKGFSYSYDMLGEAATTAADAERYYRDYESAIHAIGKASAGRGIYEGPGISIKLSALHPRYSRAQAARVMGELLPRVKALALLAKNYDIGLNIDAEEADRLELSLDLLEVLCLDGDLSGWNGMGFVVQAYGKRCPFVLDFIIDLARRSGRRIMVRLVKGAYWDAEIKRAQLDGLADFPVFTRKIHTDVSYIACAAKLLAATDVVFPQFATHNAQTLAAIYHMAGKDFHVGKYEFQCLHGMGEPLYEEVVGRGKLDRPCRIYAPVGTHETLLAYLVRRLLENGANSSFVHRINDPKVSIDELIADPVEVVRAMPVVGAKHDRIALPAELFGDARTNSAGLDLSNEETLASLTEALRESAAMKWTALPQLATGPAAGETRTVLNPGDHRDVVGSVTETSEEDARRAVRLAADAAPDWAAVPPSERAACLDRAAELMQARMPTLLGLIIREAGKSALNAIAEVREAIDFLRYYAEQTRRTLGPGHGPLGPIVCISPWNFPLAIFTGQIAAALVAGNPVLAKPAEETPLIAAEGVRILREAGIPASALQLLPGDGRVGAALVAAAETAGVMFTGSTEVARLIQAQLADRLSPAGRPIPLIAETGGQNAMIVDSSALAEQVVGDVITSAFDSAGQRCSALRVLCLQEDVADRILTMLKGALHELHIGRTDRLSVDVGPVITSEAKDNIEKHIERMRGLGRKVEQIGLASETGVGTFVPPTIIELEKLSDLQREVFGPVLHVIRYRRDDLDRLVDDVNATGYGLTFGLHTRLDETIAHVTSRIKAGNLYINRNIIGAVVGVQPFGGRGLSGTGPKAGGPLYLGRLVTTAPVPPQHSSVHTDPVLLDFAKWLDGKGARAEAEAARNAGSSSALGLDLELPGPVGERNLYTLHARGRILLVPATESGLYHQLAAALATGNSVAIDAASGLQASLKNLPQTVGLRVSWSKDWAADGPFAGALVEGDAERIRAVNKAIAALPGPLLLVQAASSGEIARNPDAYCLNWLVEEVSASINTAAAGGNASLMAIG
Assay: X-ray crystal structures, noncovalent in the dark
Format: biochemical

- IC50: 22.4 µM
Compound: O=C(O)C1SCCS1 [compound 4, 1,3-dithiolane-2-carboxylic acid]
